Target: T1, PAR-1 receptor (Homo sapiens, UniProt P25116)
T1 construct: endogenous in cells; host or cells: HEK 293
T1 sequence (P25116 22-425): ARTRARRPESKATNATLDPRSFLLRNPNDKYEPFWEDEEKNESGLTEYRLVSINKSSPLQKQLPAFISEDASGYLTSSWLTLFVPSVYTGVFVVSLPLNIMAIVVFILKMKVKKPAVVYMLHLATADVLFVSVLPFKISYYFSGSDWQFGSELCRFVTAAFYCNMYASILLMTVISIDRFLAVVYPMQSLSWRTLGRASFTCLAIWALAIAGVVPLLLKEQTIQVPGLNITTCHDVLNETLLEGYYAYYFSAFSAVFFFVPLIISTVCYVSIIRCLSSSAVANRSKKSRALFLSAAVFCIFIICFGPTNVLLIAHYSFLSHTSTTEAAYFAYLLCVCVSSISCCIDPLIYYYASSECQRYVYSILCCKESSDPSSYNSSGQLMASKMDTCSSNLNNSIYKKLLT
Test: PAR-1 FLIPR Assay
Assay type: cell-based
Details: HEK 293 cells, FLIPR calcium-5 dye; inhibition of signal from PAR1 selective receptor-activating peptide at 80% activation concentration (1.4-2.0 uM); compound incubated 30 minutes at 25 degrees
Method: The following assay was used to determine the ability of the inventive compounds to inhibit the PAR-1 receptor.
HEK 293 Cells are grown in media containing DMEM, 10% FBS pen/strep/L-Glutamine and non-essential amino acids. The cells are plated in 384-well PDL coated plates at 12000 cells/well and incubated overnight at 37° C./5% CO2. Media is then removed from the cells, which are then incubated with buffer (Hank's containing HEPES and Chaps) containing FLIPR calcium-5 dye, made with buffer containing probenecid, for 60 minutes at 37° C. Varying concentrations of compound in a final concentration of 5% DMSO are then added to the cells and incubated at 25 degrees for 30 minutes. The plates are then added to a FLIPR Tetra cellular screening system and the device adds a concentration of a PAR1 selective receptor-activating peptide with the sequence Ala-parafluoroPhe-Arg-Cha-Cit-Tyr-NH2 (SEQ ID NO: 3) (prepared in water) at a concentration equal to the effective concentration that achieves 80% activation of signaling on the day of the experiment. The range is from 1.4-2.0 uM peptide. The FLIPR reads at an excitation wavelength of 480 nm and an emission wavelength of 535 nm, and performs 60 scans over a 1-2 min reading time. The data are analyzed by taking the peak signal over a portion of the range of the 60 scans and dividing this signal by the minimum signal for that same range. The data are expressed as percent inhibition of the maximum divided by the minimum signal achieved at 80% activation produced by the PAR1 activating peptide on the test day.

| SMILES | IC50 |
| --- | --- |
| CC[C@@H]1CC[C@@H]2[C@H]([C@H]1/C=C/c1ccc(-c3ccccc3C#N)cn1)[C@@H](C)N(CCO)S2(=O)=O [Example 29, 2-(6-((E)-2-((3R,3aR,4R,5R,7aR)-5-ethyl-2-(2-hydroxyethyl)-3-methyl-1,1-dioxidooctahydrobenzo[d]isothiazol-4-yl)vinyl)pyridin-3-yl)benzonitrile] | 0.54 µM |
| C[C@H]1NS(=O)(=O)[C@]2(C)CC(F)(F)[C@@H](C)[C@H](/C=C/c3ccc(-c4cccc(F)c4)cn3)[C@H]12 [Example 15, (3R,3aR,4S,5S,7aR)-6,6-difluoro-4-((E)-2-(5-(3-fluorophenyl)pyridin-2-yl)vinyl)-3,5,7a-trimethyloctahydrobenzo[d]isothiazole 1,1-dioxide] | 0.0551 µM |
| CC[C@@H]1CC[C@@H]2[C@H]([C@H]1/C=C/c1ccc(-c3ccccc3C#N)cn1)[C@@H](C)N(C)S2(=O)=O [Example 27, 2-(6-((E)-2-((3R,3aR,4R,5R,7aR)-5-ethyl-2,3-dimethyl-1,1-dioxidooctahydrobenzo[d]isothiazol-4-yl)vinyl)pyridin-3-yl)benzonitrile] | 0.013 µM |
| C[C@H]1NS(=O)(=O)[C@@H]2CC(F)(F)[C@@H](C)[C@H](/C=C/c3ccc(-c4ccccc4C#N)cn3)[C@@H]21 [Example 3, (3R,3aR,4S,5S,7aR)-4-((E)-2-(5-(2-cyanophenyl)pyridin-2-yl)vinyl)-6,6-difluoro-3,5-dimethyloctahydrobenzo[d]isothiazole-1,1-dioxide] | 0.0119 µM |
| CC[C@@H]1CC[C@@H]2[C@H]([C@H]1/C=C/c1ccc(-c3ccccc3C#N)cn1)[C@@H](C)NS2(=O)=O [Example 10, 2-(6-((E)-2-((3R,3aR,4R,5R,7aR)-5-ethyl-3-methyl-1,1-dioxidooctahydrobenzo[d]isothiazol-4-yl)vinyl)pyridin-3-yl)benzonitrile] | 0.00097 µM |
| COc1ncccc1-c1ccc(/C=C/[C@@H]2[C@@H]3[C@@H](C)NS(=O)(=O)[C@@]3(CC(N)=O)CC(F)(F)[C@H]2C)nc1 [Example 22, 2-((3R,3aR,4S,5S,7aS)-6,6-difluoro-4-((E)-2-(2′-methoxy-[3,3′-bipyridin]-6-yl)vinyl)-3,5-dimethyl-1,1-dioxidooctahydrobenzo[d]isothiazol-7a-yl)acetamide] | 0.337 µM |
| CC(=O)N1[C@H](C)[C@H]2[C@@H](/C=C/c3ccc(-c4ccccc4C#N)cn3)[C@@H](C)C(F)(F)C[C@H]2S1(=O)=O [Example 9, 1-((3R,3aR,4S,5R,7aR)-6,6-difluoro-4-((E)-2-(5-(2-cyanophenyl)pyridin-2-yl)vinyl)-3,5-dimethyl-1,1-dioxidohexahydrobenzo[d]isothiazol-2(3H)-yl)ethanone] | 0.564 µM |
| CCOC(=O)N1[C@H](C)[C@H]2[C@@H](/C=C/c3ccc(-c4ccccc4C#N)cn3)[C@H](CC)CC[C@H]2S1(=O)=O [Example 28, (3R,3aR,4R,5R,7aR)-ethyl 4-((E)-2-(5-(2-cyanophenyl)pyridin-2-yl)vinyl)-5-ethyl-3-methylhexahydrobenzo[d]isothiazole-2(3H)-carboxylate 1,1-dioxide] | 0.325 µM |
| C[C@H]1NS(=O)(=O)[C@]2(C)CC(F)(F)[C@@H](C)[C@H](/C=C/c3ccc(-c4ccccc4C#N)cn3)[C@H]12 [Example 16, (3R,3aR,4S,5S,7aR)-6,6-difluoro-4-((E)-2-(5-(2-cyanophenyl)pyridin-2-yl)vinyl)-3,5,7a-trimethyloctahydrobenzo[d]isothiazole 1,1-dioxide] | 0.0118 µM |
| Cc1nc(/C=C/[C@@H]2[C@H]3[C@@H](CC(F)(F)[C@H]2C)S(=O)(=O)N[C@@H]3C)ccc1-c1ccccc1C#N [Example 6, (3R,3aR,4S,5S,7aR)-4-((E)-2-(5-(2-cyanophenyl)pyridin-2-yl)-6-methylvinyl)-6,6-difluoro-3,5-dimethyloctahydrobenzo[d]isothiazole-1,1-dioxide] | 0.0667 µM |
| C[C@@H]1[C@H]2[C@@H](/C=C/c3ccc(-c4cccc(F)c4)cn3)[C@H](C)C(F)(F)C[C@H]2S(=O)(=O)N1C(=O)OC(C)(C)C [Example 14, (3R,3aR,4S,5S,7aR)-tert-butyl 6,6-difluoro-4-((E)-2-(5-(3-fluorophenyl)pyridin-2-yl)vinyl)-3,5-dimethylhexahydrobenzo[d]isothiazole-2(3H)-carboxylate 1,1-dioxide] | 0.383 µM |
| COc1ncccc1-c1ccc(/C=C/[C@@H]2[C@@H]3[C@@H](C)N(C(=O)OC(C)(C)C)S(=O)(=O)[C@@H]3CC(F)(F)[C@H]2C)nc1 [Example 13, (3R,3aR,4S,5S,7aR)-tert-butyl 6,6-difluoro-4-((E)-2-(2′-methoxy-[3,3′-bipyridin]-6-yl)vinyl)-3,5-dimethylhexahydrobenzo[d]isothiazole-2(3H)-carboxylate 1,1-dioxide] | 0.278 µM |
| COc1ncccc1-c1ccc(/C=C/[C@@H]2[C@@H]3[C@@H](C)N(C(=O)OC(C)(C)C)S(=O)(=O)[C@]3(CC(N)=O)CC(F)(F)[C@H]2C)nc1 [Example 21] | 0.11 µM |
| COc1ncccc1-c1ccc(/C=C/[C@@H]2[C@@H]3[C@@H](C)NS(=O)(=O)[C@]3(C)CC(F)(F)[C@H]2C)nc1 [Example 12, (3R,3aR,4S,5S,7aR)-6,6-difluoro-4-((E)-2-(2′-methoxy-[3,3′-bipyridin]-6-yl)vinyl)-3,5,7a-trimethyloctahydrobenzo[d]isothiazole 1,1-dioxide] | 0.0042 µM |
| C[C@@H]1[C@H](/C=C/c2ccc(-c3ccccc3C#N)cn2)[C@H]2[C@@H](CC1(F)F)S(=O)(=O)N[C@@H]2C [Example 8, (3R,3aR,4S,5R,7aR)-4-((E)-2-(5-(2-cyanophenyl)pyridin-2-yl)vinyl)-6,6-difluoro-3,5-dimethyloctahydrobenzo[d]isothiazole-1,1-dioxide] | 0.178 µM |
| CCOC(=O)C[C@@]12CC(F)(F)[C@@H](C)[C@H](/C=C/c3ccc(-c4ccccc4C#N)cn3)[C@@H]1[C@@H](C)N(C(=O)OC(C)(C)C)S2(=O)=O [Example 26] | 0.054 µM |
| CC[C@@H]1CC[C@@H]2[C@H]([C@H]1/C=C/c1ccc(-c3ccccc3C#N)cn1)[C@@H](C)N(C(=O)OC(C)(C)C)S2(=O)=O [Example 11, (3R,3aR,4R,5R,7aR)-tert-butyl 4-((E)-2-(5-(2-cyanophenyl)pyridin-2-yl)vinyl)-5-ethyl-3-methylhexahydrobenzo[d]isothiazole-2(3H)-carboxylate1,1-dioxide] | 0.286 µM |
| Cc1nc(/C=C/[C@@H]2[C@H]3[C@@H](CC(F)(F)[C@H]2C)S(=O)(=O)N[C@@H]3C)ccc1-c1cccnc1C#N [Example 7] | 0.041 µM |
| C[C@H]1NS(=O)(=O)[C@]2(CC(N)=O)CC(F)(F)[C@@H](C)[C@H](/C=C/c3ccc(-c4ccccc4C#N)cn3)[C@H]12 [Example 23, 2-((3R,3aR,4S,5S,7aR)-4-((E)-2-(5-(2-cyanophenyl)pyridin-2-yl)vinyl)-6,6-difluoro-3,5-dimethyl-1,1-dioxidooctahydrobenzo[d]isothiazol-7a-yl)acetamide] | 0.003 µM |
| C[C@H]1NS(=O)(=O)[C@]2(C)CC(F)(F)[C@@H](C)[C@H](/C=C/c3ccc(-c4cccnc4C#N)cn3)[C@H]12 [Example 17, (3R,3aR,4S,5S,7aR)-6,6-difluoro-4-((E)-2-(2′-cyano-[3,3′-bipyridin]-6-yl)vinyl)-3,5,7a-trimethyloctahydrobenzo[d]isothiazole 1,1-dioxide] | 0.012 µM |

Reference: US20170240539A1, “Preparation and Use of Cyclic Sulfonamide Derivatives as PAR-1 Receptor Antagonists” (MERCK SHARP & DOHME CORP., priority 2014, published 2017)
